Consider 55 compounds from US8946234B2, “Halogen-substituted compounds” (Bayer CropScience AG, priority 2008, dated 2015).

Structures are written as SMILES.

For orientation: chromatographic logP means a lipophilicity value derived from retention on a column. A lower chromatographic logP goes with a more hydrophilic compound.

One data set is described as follows: log P from HPLC-MS, no method note printed. It is filed as physicochemical. The following applies: method not given.
Consider `Cn1nc(OCC(F)(F)F)cc1C(=O)O` [1-Methyl-3-(2,2,2-trifluoroethoxy)-1H-pyrazole-5-carboxylic acid], for which the chromatographic logP stood at 1.65.

`Cn1nc(C(F)(F)C(F)(F)F)c(I)c1C(=O)O` [1-Methyl-3-pentafluoroethyl-4-iodo-1H-pyrazole-5-carboxylic acid] showed a chromatographic logP of 2.33. The same measure, in the same setting: for `Cn1nc(-c2ccc(C(F)(F)F)cc2)c(C(F)(F)F)c1C(=O)O` [1-Methyl-4-(trifluoromethyl)-3-[4-(trifluoromethyl)phenyl]-1H-pyrazole-5-carboxylic acid] the value was 1.24. Same read-out and setting: for `O=C(O)c1cnc(C(F)(F)C(F)(F)F)nc1C(F)(F)C(F)(F)F` [2,4-Bis(pentafluoroethyl)pyrimidine-5-carboxylic acid] the value was 2.24; for `O=C(O)c1sc(C(F)(F)C(F)(F)F)nc1C(F)(F)F` [2-(Pentafluoroethyl)-4-(trifluoromethyl)-1,3-thiazole-5-carboxylic acid], 2.06.

In turn, `Cc1nc(C(N)=O)c(C(F)(F)F)c(C(F)(F)C(F)(F)F)n1` [2-Methyl-6-(pentafluoroethyl)-5-(trifluoromethyl)pyrimidine-4-carboxamide] displayed a chromatographic logP of 2.33. Still for that read-out and setting: for `Cn1nc(C(C)(C)F)c(C(F)(F)F)c1C(=O)O` [3-(2-Fluoropropan-2-yl)-1-methyl-4-(trifluoromethyl)-1H-pyrazole-5-carboxylic acid] the value was 1.43; for `Cn1nc(OC(F)F)cc1C(=O)O` [3-(Difluoromethoxy)-1-methyl-1H-pyrazole-5-carboxylic acid], 1.15; for `Cn1nc(C(F)F)c(C(F)(F)F)c1C(=O)O` [3-(Difluoromethyl)-1-methyl-4-(trifluoromethyl)-1H-pyrazole-5-carboxylic acid], 1.1. For `Cn1nc(C2CC2)c(C(F)(F)F)c1C(=O)O` [3-Cyclopropyl-1-methyl-4-(trifluoromethyl)-1H-pyrazole-5-carboxylic acid], the chromatographic logP is 1.74. On the same count and under the same terms, for `Cn1nc(C(O)C2CC2)c(C(F)(F)F)c1C(=O)O` (stereo not shown) [3-[Cyclopropyl(hydroxy)methyl]-1-methyl-4-(trifluoromethyl)-1H-pyrazole-5-carboxylic acid] the value was 0.72; for `O=C(O)c1cnc(C(F)(F)F)nc1-c1ccccn1` [4-(Pyridin-2-yl)-2-(trifluoromethyl)pyrimidine-5-carboxylic acid], 1.5.

In turn, `Cn1nc(OCC(F)(F)F)c(Br)c1C(=O)O` [4-Bromo-1-methyl-3-(2,2,2-trifluoroethoxy)-1H-pyrazole-5-carboxylic acid] yielded a chromatographic logP of 2.03. On the same count and under the same terms, for `Cn1nc(OC(F)F)c(Br)c1C(=O)O` [4-Bromo-3-(difluoromethoxy)-1-methyl-1H-pyrazole-5-carboxylic acid] the value was 1.52; for `Cn1nc(C2CC2)c(Br)c1C(=O)O` [4-Bromo-3-cyclopropyl-1-methyl-1H-pyrazole-5-carboxylic acid], 1.76; for `Cn1nc(OCC(F)(F)F)c(Cl)c1C(=O)O` [4-Chloro-1-methyl-3-(2,2,2-trifluoroethoxy)-1H-pyrazole-5-carboxylic acid], 2.

Consider `Cn1nc(OC(F)F)c(Cl)c1C(=O)O` [4-Chloro-3-(difluoromethoxy)-1-methyl-1H-pyrazole-5-carboxylic acid], for which the chromatographic logP was 1.5.

Another data set in a line: logP by HPLC on a C18 phase inversion column, EEC Directive 79/831 Annex V.A8, method b) (HP1100, 5-95% acetonitrile in 1.70 min). The format is physicochemical. The settings on record: HPLC method b). The procedure: ^b) Note regarding the determination of the log P values and mass detection: The log P values given were determined in accordance with EEC Directive 79/831 Annex V.A8 by HPLC (High Performance Liquid Chromatography) on a phase inversion column (C18). HP1100; 50*4.6 Zorbax Eclipse Plus C18 1.8 micron; eluent A: acetonitrile (0.1% formic acid); eluent B: water (0.08% formic acid); linear gradient from 5% acetonitrile to 95% acetonitrile in 1.70 min, then 95% acetonitrile for a further 1.00 min; oven temperature 55° C.; flow: 2.0 ml/min. The mass detection is carried out via the mass detector Micromass ZQ2000 from Waters.
Turning to `COCC(C)(C#N)NC(=O)c1cc(NC(=O)c2c(C(F)(F)F)c(C(F)(F)C(F)(F)F)nn2C)ccc1Cl` (stereo not shown) [Ik-275], the logP is 3.37^b).

Turning to `Cn1cc(C(F)(F)F)nc1C(NC(=O)c1cc(NC(=O)c2c(C(F)(F)F)c(C(F)(F)C(F)(F)F)nn2C)ccc1Cl)C(F)(F)F` (stereo not shown) [Ik-276], the logP is listed as 4.00^b). On the same count and under the same terms, for `Cc1csc(C(NC(=O)c2cc(NC(=O)c3c(C(F)(F)F)c(C(F)(F)C(F)(F)F)nn3C)ccc2Cl)C(F)(F)F)n1` (stereo not shown) [Ik-277] the value was 4.00^b). Same read-out and setting: for `Cn1nc(C(F)(F)C(F)(F)F)c(C(F)(F)F)c1C(=O)Nc1ccc(Cl)c(C(=O)NC2C=CS(=O)(=O)C2)c1` (stereo not shown) [Ik-278] the value was 2.80^b).

On to `C[C@H]1C[C@H]1NC(=O)c1cc(NC(=O)c2c(C(F)(F)F)c(C(F)(F)C(F)(F)F)nn2C)ccc1Cl` [Ik-279], for which the logP is recorded as 3.37^b). Turning to `Cn1nc(C(F)(F)C(F)(F)F)c(C(F)(F)F)c1C(=O)Nc1ccc(Cl)c(C(=O)NCCOCC(F)(F)F)c1` [Ik-281], the logP is reported as 3.53^b). On the same count and under the same terms, for `Cn1nc(C(F)(F)C(F)(F)F)c(C(F)(F)F)c1C(=O)Nc1ccc(Cl)c(C(=O)NCc2ccccc2Cl)c1` [Ik-282] the value was 4.05^b).

For `Cn1nc(C(F)(F)C(F)(F)F)c(C(F)(F)F)c1C(=O)Nc1ccc(Cl)c(C(=O)NCc2ccc(Cl)cc2)c1` [Ik-283], the logP is reported as 4.05^b). On the same count and under the same terms, for `CC(NC(=O)c1cc(NC(=O)c2c(C(F)(F)F)c(C(F)(F)C(F)(F)F)nn2C)ccc1Cl)c1ccccc1F` (stereo not shown) [Ik-284] the value was 4.00^b).

As to `Cn1nc(C(F)(F)C(F)(F)F)c(C(F)(F)F)c1C(=O)Nc1ccc(Cl)c(C(=O)NC2CCOCC2)c1` [Ik-285], the logP is 3.06^b). The same measure, in the same setting: for `CCC1CC1NC(=O)c1cc(NC(=O)c2c(C(F)(F)F)c(C(F)(F)C(F)(F)F)nn2C)ccc1Cl` (stereo not shown) [Ik-286] the value was 3.84^b); for `Cn1nc(C(F)(F)C(F)(F)F)c(C(F)(F)F)c1C(=O)Nc1ccc(Cl)c(C(=O)NC2CC=CC2)c1` [Ik-287], 3.63^b).

For the compound `CC(NC(=O)c1cc(NC(=O)c2c(C(F)(F)F)c(C(F)(F)C(F)(F)F)nn2C)ccc1Cl)C1(Cl)CC1` (stereo not shown) [Ik-288], the logP is given as 4.05^b). Still for that read-out and setting: for `CSCC(C)(C)NC(=O)c1cc(NC(=O)c2c(C(F)(F)F)c(C(F)(F)C(F)(F)F)nn2C)ccc1Cl` [Ik-289] the value was 4.05^b); for `CC(CF)NC(=O)c1cc(NC(=O)c2c(C(F)(F)F)c(C(F)(F)C(F)(F)F)nn2C)ccc1Cl` (stereo not shown) [Ik-290], 3.28^b); for `Cn1nc(C(F)(F)C(F)(F)F)c(C(F)(F)F)c1C(=O)Nc1ccc(Cl)c(C(=O)NCCC(F)(F)F)c1` [Ik-291], 3.53^b).

In the case of `CC(C#N)NC(=O)c1cc(NC(=O)c2c(C(F)(F)F)c(C(F)(F)C(F)(F)F)nn2C)ccc1Cl` (stereo not shown) [Ik-292], the logP is reported as 3.02^b). On the same count and under the same terms, for `C#CC(C)NC(=O)c1cc(NC(=O)c2c(C(F)(F)F)c(C(F)(F)C(F)(F)F)nn2C)ccc1Cl` (stereo not shown) [Ik-293] the value was 3.28^b); for `C[C@H](NC(=O)c1cc(NC(=O)c2c(C(F)(F)F)c(C(F)(F)C(F)(F)F)nn2C)ccc1Cl)C(F)(F)F` [Ik-294], 3.63^b); for `C/C(Cl)=C/CNC(=O)c1cc(NC(=O)c2c(C(F)(F)F)c(C(F)(F)C(F)(F)F)nn2C)ccc1Cl` [Ik-295], 3.73^b).

`Cn1nc(C(F)(F)C(F)(F)F)c(C(F)(F)F)c1C(=O)Nc1ccc(Cl)c(C(=O)NC2(C(F)(F)F)CC2)c1` [Ik-296]: the logP was 3.58^b). On the same count and under the same terms, for `CCC(NC(=O)c1cc(NC(=O)c2c(C(F)(F)F)c(C(F)(F)C(F)(F)F)nn2C)ccc1Cl)C(F)(F)F` (stereo not shown) [Ik-297] the value was 3.89^b). The same measure, in the same setting: for `CCCC(NC(=O)c1cc(NC(=O)c2c(C(F)(F)F)c(C(F)(F)C(F)(F)F)nn2C)ccc1Cl)C(F)(F)F` (stereo not shown) [Ik-298] the value was 4.11^b); for `CC(CC(F)(F)F)NC(=O)c1cc(NC(=O)c2c(C(F)(F)F)c(C(F)(F)C(F)(F)F)nn2C)ccc1Cl` (stereo not shown) [Ik-299], 3.63^b). The same measure, in the same setting: for `Cn1nc(C(F)(F)C(F)(F)F)c(C(F)(F)F)c1C(=O)Nc1ccc(Cl)c(C(=O)NC(C)(C)CC(F)(F)F)c1` [Ik-300] the value was 4.00^b); for `Cn1nc(C(F)(F)C(F)(F)F)c(C(F)(F)F)c1C(=O)Nc1ccc(Cl)c(C(=O)NC(C)(C)CS(C)(=O)=O)c1` [Ik-301], 3.02^b). For the compound `Cn1nc(C(F)(F)C(F)(F)F)c(C(F)(F)F)c1C(=O)Nc1ccc(Cl)c(C(=O)NCC(F)(F)C(F)(F)F)c1` [Ik-302], the logP is 3.78^b).

On to `CC(NC(=O)c1cc(NC(=O)c2c(C(F)(F)F)c(C(F)(F)C(F)(F)F)nn2C)ccc1Cl)c1cccc(F)c1` (stereo not shown) [Ik-303], for which the logP is 3.89^b). Same read-out and setting: for `Cc1cccc(CNC(=O)c2cc(NC(=O)c3c(C(F)(F)F)c(C(F)(F)C(F)(F)F)nn3C)ccc2Cl)c1` [Ik-304] the value was 3.94^b); for `Cc1ccccc1CNC(=O)c1cc(NC(=O)c2c(C(F)(F)F)c(C(F)(F)C(F)(F)F)nn2C)ccc1Cl` [Ik-305], 3.89^b); for `Cc1ccc(CNC(=O)c2cc(NC(=O)c3c(C(F)(F)F)c(C(F)(F)C(F)(F)F)nn3C)ccc2Cl)cc1` [Ik-306], 3.94^b). `C[C@@H](NC(=O)c1cc(NC(=O)c2c(C(F)(F)F)c(C(F)(F)C(F)(F)F)nn2C)ccc1Cl)C(F)(F)F` [Ik-307]: the logP was 3.78^b). The same measure, in the same setting: for `Cn1nc(C(F)(F)C(F)(F)F)c(C(F)(F)F)c1C(=O)Nc1ccc(Cl)c(C(=O)NCc2ccc(F)cc2F)c1` [Ik-308] the value was 3.94^b); for `Cn1nc(C(F)(F)C(F)(F)F)c(C(F)(F)F)c1C(=O)Nc1ccc(Cl)c(C(=O)NCc2ccc(F)c(F)c2)c1` [Ik-309], 3.94^b); for `CC(C)[C@H](NC(=O)c1cc(NC(=O)c2c(C(F)(F)F)c(C(F)(F)C(F)(F)F)nn2C)ccc1Cl)C(F)(F)F` [Ik-310], 3.89^b). Still for that read-out and setting: for `Cn1nc(C(F)(F)C(F)(F)F)c(C(F)(F)F)c1C(=O)Nc1ccc(Cl)c(C(=O)NC2CC2F)c1` (stereo not shown) [Ik-311] the value was 3.28^b). For `Cn1nc(C(F)(F)C(F)(F)F)c(C(F)(F)F)c1C(=O)Nc1ccc(Cl)c(C(=O)NCc2ccc(F)cc2)c1` [Ik-312], the logP was 3.73^b). Turning to `Cn1nc(C(F)(F)C(F)(F)F)c(C(F)(F)F)c1C(=O)Nc1ccc(Cl)c(C(=O)NCc2ccncc2)c1` [Ik-313], the logP is on record as 1.93^b).
